Source: patent US20060079453A1, “Hla binding peptides and their uses” (priority 2002, published 2006)
Like-named read-outs stand apart in the source and are kept apart here. No end group written: not given here.

Legend:
Assay in all cases: biochemical
Assay type in all cases: binding
HLA-A*3101 = HLA-A*3101 (Homo sapiens, UniProt P04439, A270S/D185E/E176V/E277Q/F33T/G231S/G80R/H175R/I121M/I218V/I322F/K168Q/L300P/L318F/M331R/P217A/Q94H/R138Q/T323A/T345S/T97I/V358M)
HLA-A*1101 = HLA-A*1101 (Homo sapiens, UniProt P04439, A114D/D185E/E176A/F33Y/L180Q/S129P/T187R)
HLA-A*3301 = HLA-A*3301 (Homo sapiens, UniProt P04439, A270S/D185E/E176V/E277Q/E87N/F33T/G231S/H175R/I121M/I218V/I322F/K168Q/K210R/L300P/L318F/M331R/P217A/Q86R/Q94H/R138Q/T323A/T345S/T97I/V358M/Y195H)
HLA-A*0301 = HLA-A*0301 (Homo sapiens, UniProt P04439)
HLA-A*6801 = HLA-A*6801 (Homo sapiens, UniProt P04439, A269V/D185E/E176V/E277Q/E87N/F33Y/G231S/I121M/I166T/I218V/L180W/L300P/L318F/N151K/P208A/P217A/Q86R/R169H/T345S)
HLA-DR DRB4*0101 (DR53) = HLA-DR DRB4*0101 (DR53) (Homo sapiens, UniProt P01903+P13762, G164S); conditions: DRB4 *0101
HLA-DR DRB5*0101 (DR51) = HLA-DR DRB5*0101 (DR51) (Homo sapiens, UniProt P01903+Q30154); conditions: DRB5 *0101
HLA-DR DRB1*0701 (DR7) = HLA-DR DRB1*0701 (DR7) (Homo sapiens, UniProt P01903+P01911, A100R/A102G/A103Q/D57E/D86V/E43K/F76Y/K127E/L162R/M171V/P40G/Q125H/Q99D/R33Q/R42Y/R54Q/S133A/S66F/T210M/V115G/Y107V/Y59L/Y89S)
HLA-DR DRB1*0401 (DR4) = HLA-DR DRB1*0401 (DR4) (Homo sapiens, UniProt P01903+P01911, A100K/A169T/F76Y/I96L/K127E/L162R/M171V/N62H/P40V/Q125Y/R42H/S133A/S149N/S66Y/V115G/V209L/W38E)
HLA-DR DRB1*0405 (DR4) = HLA-DR DRB1*0405 (DR4) (Homo sapiens, UniProt P01903+P01911, A100R/A169T/D86S/F76Y/I96L/K127E/L162R/M171V/N62H/P40V/Q125Y/R42H/S133A/S149N/S66Y/V115G/V209L/W38E)
HLA-DR DRB1*1302 (DR13) = HLA-DR DRB1*1302 (DR13) (Homo sapiens, UniProt P01903+P01911, A100E/A169T/K41T/L162R/M171V/P40S/Q125H/Q178H/Q39Y/Q99D/R42S/S66N/T262R/V115G/W38E/Y61H); conditions: DRBI *1302
HLA-DR DRB1*0301 (DR3) = HLA-DR DRB1*0301 (DR3) (Homo sapiens, UniProt P01903+P01911, A100K/A102G/A103R/A169T/F55Y/I96L/K41T/L162R/M171V/P40S/Q125H/Q178H/Q39Y/R42S/S66N/T106N/T262R/W38E/Y61H)
HLA-DR DRB1*1501 (DR15) = HLA-DR DRB1*1501 (DR15) (Homo sapiens, UniProt P01903+P01911); conditions: DRBI *1501
HLA-DR DRB1*0101 (DR1) = HLA-DR DRB1*0101 (DR1) (Homo sapiens, UniProt P01903+P01911, A100R/D57E/F55L/F60I/F76Y/I96L/L162R/M171V/P40L/Q125E/R42F/V115G/Y59C); conditions: DRB1 *0101
HLA-DR DRB1*1101 (DR11) = HLA-DR DRB1*1101 (DR11) (Homo sapiens, UniProt P01903+P01911, A100R/A169T/A87E/I96F/K41T/L162R/M171V/P40S/Q125H/Q178H/Q39Y/Q99D/R42S/S66Y/T262R/V115G/W38E); conditions: DRB1 *1101
Sequence of HLA-DR DRB1*1101 (DR11) (P01903 26-254 limits assumed, other chains not shown): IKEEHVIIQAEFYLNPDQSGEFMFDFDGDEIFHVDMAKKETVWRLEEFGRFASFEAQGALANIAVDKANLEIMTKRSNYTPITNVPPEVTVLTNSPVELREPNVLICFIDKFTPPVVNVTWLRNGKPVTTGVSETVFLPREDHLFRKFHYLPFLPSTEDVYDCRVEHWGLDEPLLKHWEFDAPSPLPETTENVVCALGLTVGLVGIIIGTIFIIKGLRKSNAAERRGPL

Sequence of HLA-DR DRB1*1302 (DR13) (P01903 26-254 limits assumed, other chains not shown): as above
Sequence of HLA-A*1101 (P04439 25-365 limits assumed, stated change not applied): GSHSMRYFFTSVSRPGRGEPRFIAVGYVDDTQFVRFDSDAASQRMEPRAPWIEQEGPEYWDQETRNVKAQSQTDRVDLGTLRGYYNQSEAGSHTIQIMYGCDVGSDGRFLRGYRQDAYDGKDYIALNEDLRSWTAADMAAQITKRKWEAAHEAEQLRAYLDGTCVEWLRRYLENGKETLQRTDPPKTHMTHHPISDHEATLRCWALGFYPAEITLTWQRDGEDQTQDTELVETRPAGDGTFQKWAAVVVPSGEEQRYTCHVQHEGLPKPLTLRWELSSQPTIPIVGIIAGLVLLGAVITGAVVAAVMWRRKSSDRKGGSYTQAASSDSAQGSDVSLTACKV
Sequence of HLA-DR DRB1*0301 (DR3) (P01903 26-254 limits assumed, other chains not shown): as the sequence (P01903 26-254 limits assumed, other chains not shown) above

Molecule	IC50 (HLA-A*3101) [nM]	IC50 (HLA-A*1101) [nM]	IC50 (HLA-A*3301) [nM]	IC50 (HLA-A*0301) [nM]	IC50 (HLA-A*6801) [nM]	other results
GVSHAQLPAK	36000	12	> 74900	42	20600	
CC(C)C[C@H](NC(=O)[C@H](CCC(N)=O)NC(=O)[C@H](CCC(N)=O)NC(=O)[C@H](CC(C)C)NC(=O)[C@@H](NC(=O)[C@H](CCCNC(=N)N)NC(=O)[C@@H](N)CC(C)C)[C@@H](C)O)C(=O)N[C@@H](Cc1ccccc1)C(=O)N[C@@H](CC(C)C)C(=O)N[C@@H](CO)C(=O)N[C@H](C(=O)N[C@@H](CC(C)C)C(=O)N[C@@H](CO)C(=O)N[C@@H](Cc1ccccc1)C(=O)N[C@H](C(=O)O)C(C)C)[C@@H](C)O						IC50 (HLA-DR DRB4*0101 (DR53)): 3.1 nM; IC50 (HLA-DR DRB5*0101 (DR51)): 1990 nM; IC50 (HLA-DR DRB1*0701 (DR7); DRB1 *0701): 60 nM; IC50 (HLA-DR DRB1*0401 (DR4); DRB1 *0401): 18 nM; IC50 (HLA-DR DRB1*0405 (DR4); DRB1 *0405): 9 nM; IC50 (HLA-DR DRB1*1302 (DR13)): 55 nM; IC50 (HLA-DR DRB1*0301 (DR3)): 801 nM; IC50 (HLA-DR DRB1*1501 (DR15)): 29 nM; IC50 (HLA-DR DRB1*0101 (DR1)): 8.3 nM; IC50 (HLA-DR DRB1*1101 (DR11)): 208 nM
ALKISQLQK	3200	96	23800	15	> 54800	
LRIVYRDGNPFAVCK						IC50 (HLA-DR DRB4*0101 (DR53)): 1570 nM; IC50 (HLA-DR DRB5*0101 (DR51)): 6820 nM; IC50 (HLA-DR DRB1*0701 (DR7); DRB1 *0701): 8990 nM; IC50 (HLA-DR DRB1*0401 (DR4); DRB1 *0401): 16 nM; IC50 (HLA-DR DRB1*0405 (DR4); DRB1 *0405): 557 nM; IC50 (HLA-DR DRB1*1302 (DR13)): 123 nM; IC50 (HLA-DR DRB1*1101 (DR11)): 109 nM
EFAFKDLFVVYRDS						IC50 (HLA-DR DRB1*0701 (DR7); read-out: DRB1 *0701): 3690 nM; IC50 (HLA-DR DRB1*0401 (DR4); read-out: DRB1 *0401): 2220 nM; IC50 (HLA-DR DRB1*0405 (DR4); read-out: DRB1 *0405): 33 nM
NIMGRWTGK	3270	54	86	52	173	
RFLSKISEYY	14	25500	41100	1700	4000	
GVNHQHLPAK	3340	11	76200	42	9350	
AVIFTPIYY	42300	9.5	10100	25	1350	
LRAFQQLFLNTLSFV						IC50 (HLA-DR DRB4*0101 (DR53)): 2.2 nM; IC50 (HLA-DR DRB1*0701 (DR7); DRB1 *0701): 75 nM; IC50 (HLA-DR DRB1*0401 (DR4); DRB1 *0401): 7.4 nM; IC50 (HLA-DR DRB1*0405 (DR4); DRB1 *0405): 8.3 nM; IC50 (HLA-DR DRB1*1302 (DR13)): 1.01 nM; IC50 (HLA-DR DRB1*0301 (DR3)): 648 nM; IC50 (HLA-DR DRB1*1501 (DR15)): 20 nM; IC50 (HLA-DR DRB1*0101 (DR1)): 1.5 nM
QMMNVNLQK	504	7	6650	20	243	
VTIRIGGQLK	4460	14	65800	51	25	
KVSEFRWYRR	2.8	16	159	266	30	
VSHAQLPAK	46	9.5	1400	378	13500	
